Here are results for 80 compounds from patent US7935724B2, “Thiophene and benzothiophene hydroxamic acid derivatives” (Merck HDAC Research, LLC, priority 2003, dated 2011).

The structures appear in SMILES notation.

The target in one experiment is T1, histone deacetylase, subtype 1 (HDAC1) (Homo sapiens, UniProt Q13547).
T1 construct: Flag; made in house
T1 sequence (Q13547 whole entry): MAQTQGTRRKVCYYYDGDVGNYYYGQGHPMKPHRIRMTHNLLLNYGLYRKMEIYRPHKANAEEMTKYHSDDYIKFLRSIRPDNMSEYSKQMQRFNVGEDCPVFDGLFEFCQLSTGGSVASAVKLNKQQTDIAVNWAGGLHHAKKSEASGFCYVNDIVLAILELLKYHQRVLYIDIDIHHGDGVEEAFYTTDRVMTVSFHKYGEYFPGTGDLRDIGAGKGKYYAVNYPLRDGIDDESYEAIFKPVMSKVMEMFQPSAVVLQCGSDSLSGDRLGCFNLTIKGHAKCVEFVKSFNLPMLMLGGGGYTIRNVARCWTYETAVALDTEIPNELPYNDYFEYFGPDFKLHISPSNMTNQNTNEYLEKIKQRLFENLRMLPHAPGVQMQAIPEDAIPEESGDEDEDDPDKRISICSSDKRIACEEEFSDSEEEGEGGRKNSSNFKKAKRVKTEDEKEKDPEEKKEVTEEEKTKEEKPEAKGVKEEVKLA
In words: HDAC1-Flag assay (in vitro deacetylation assay). Type of experiment: biochemical. The note with it: Table 1, benzothiophene backbone; concentration for 50% inhibition of deacetylation; substrate at Km; unit inferred, text gives nm; read-out: HDAC Inhibition. The protocol:
Novel compounds were tested for their ability to inhibit histone deacetylase, subtype 1 (HDAC1) using an in vitro deacetylation assay. The enzyme source for this assay was an epitope-tagged human HDAC1 complex immuno-purified from stably expressing mammalian cells. The substrate consisted of a commercial product containing an acetylated lysine side chain (BIOMOL Research Laboratories, Inc., Plymouth Meeting, Pa.). Upon deacetylation of the substrate by incubation with the purified HDAC1 complex, a fluorophore is produced that is directly proportional to the level of deacetylation.
For the compound `O=C(Nc1ccc2cc(C(=O)NO)sc2c1)c1cccnc1` [Compound 29], the IC50 came out at 262 ± 33.9 nM.
With `CN(O)C(=O)c1cc2ccc(NC(=O)Cc3ccccc3)cc2s1` [Compound 102], the IC50 is 14400 nM.
The same measure, in the same setting: the figure for `CCOC(=O)Nc1ccc2cc(C(=O)NO)sc2c1` [Compound 31] is 350 ± 13.4 nM; for `O=C(NCCc1ccccc1)c1ccc2cc(C(=O)NO)sc2c1` [Compound 161] it is 58 nM; for `O=C(NCc1ccccc1)Nc1ccc2cc(C(=O)NO)sc2c1` [Compound 7] it is 52 ± 19.7 nM.
The same measure, in the same setting: under `O=C(NCC(c1ccccc1)c1ccccc1)c1ccc2cc(C(=O)NO)sc2c1` [Compound 130] stands 162 ± 40.3 nM; under `COc1ccc(CC(=O)Nc2ccc3sc(C(=O)NO)cc3c2)cc1OC` [Compound 85], 76 ± 15.5 nM; under `O=C(Nc1cccc2cccnc12)c1ccc2cc(C(=O)NO)sc2c1` [Compound 182], 1070 ± 21.9 nM.
Same read-out and setting: the figure for `COc1ccc(CC(=O)Nc2ccc3sc(C(=O)NO)cc3c2)cc1` [Compound 96] is 83 ± 21.2 nM; for `O=C(NCc1ccc(Cl)cc1)c1ccc2sc(C(=O)NO)cc2c1` [Compound 171] it is 63.5 ± 4.9 nM; for `COc1cccc(CC(=O)Nc2ccc3sc(C(=O)NO)cc3c2)c1` [Compound 53] it is 54 nM.
For the compound `O=C(NCCc1cc2ccccc2[nH]1)c1ccc2cc(C(=O)NO)sc2c1` [Compound 128], the IC50 amounted to 144 ± 63.7 nM.
On the same count and under the same terms, the figure for `COc1ccc(CN(Cc2ccc3cc(C(=O)NO)sc3c2)C2CCOCC2)cc1` [Compound 194] is 76 nM; for `CCOC(=O)Nc1ccc2sc(C(=O)NO)cc2c1` [Compound 34] it is 238 ± 2.8 nM; for `O=C(NO)c1cc2ccc(NS(=O)(=O)c3ccc(-c4ccccc4)cc3)cc2s1` [Compound 12] it is 45 ± 32.5 nM.
The same measure, in the same setting: the figure for `COc1ccc(CCNCc2ccc3sc(C(=O)NO)cc3c2)cc1OC` [Compound 143] is 325 ± 57.4 nM; for `O=C(NO)c1cc2cc(NS(=O)(=O)c3ccc(-c4ccccc4)cc3)ccc2s1` [Compound 18] it is 91 ± 49.4 nM; for `O=C(NO)c1cc2ccc(C(=O)N3CCN(Cc4ccccc4)CC3)cc2s1` [Compound 191] it is 453 ± 114 nM.
On the same count and under the same terms, under `COc1ccc(C(=O)Nc2ccc3cc(C(=O)NO)sc3c2)cc1OC` [Compound 48] stands 280 nM; under `O=C(Nc1ccccc1)c1ccc2sc(C(=O)NO)cc2c1` [Compound 104], 582 ± 9.8 nM.
For the compound `O=C(Cc1ccc(F)cc1)Nc1ccc2sc(C(=O)NO)cc2c1` [Compound 84], the IC50 is 56.5 ± 16.2 nM.
The same measure, in the same setting: under `O=C(NO)c1cc2ccc(CNCc3ccccc3)cc2s1` [Compound 192] stands 53 nM; under `O=C(NO)c1cc2cc(CNCc3nc4ccccc4[nH]3)ccc2s1` [Compound 141], 116 ± 3.5 nM; under `O=C(NO)c1cc2cc(NS(=O)(=O)Cc3ccccc3)ccc2s1` [Compound 19], 119 ± 21.9 nM.
As for `O=C(NCCC(c1ccccc1)c1ccccc1)c1ccc2sc(C(=O)NO)cc2c1` [Compound 174], the IC50 amounted to 428 ± 102 nM.
Same read-out and setting: under `O=C(Nc1ccc2sc(C(=O)NO)cc2c1)c1ccccc1` [Compound 3] stands 106 ± 13.4 nM.
For the compound `O=C(Cc1cccc(F)c1)Nc1ccc2cc(C(=O)NO)sc2c1` [Compound 50], the IC50 was determined as 14 nM.
Still for that read-out and setting: the figure for `O=C(NO)c1ccc2sc(C(=O)NO)cc2c1` [Compound 42] is 424 nM; for `O=C(NO)c1cc2cc(CNC(c3ccccc3)c3ccccc3)ccc2s1` [Compound 140] it is 869 ± 108 nM; for `O=C(NC1CCN(Cc2ccccc2)CC1)c1ccc2cc(C(=O)NO)sc2c1` [Compound 129] it is 261 ± 89.2 nM.
Same read-out and setting: the figure for `O=C(NCCc1ccccc1)Nc1ccc2cc(C(=O)NO)sc2c1` [Compound 32] is 88.5 ± 33.2 nM.
As to `O=C(NO)c1cc2cc(CNCC(c3ccccc3)c3ccccc3)ccc2s1` [Compound 152], the IC50 is 415 ± 91.6 nM.
On the same count and under the same terms, under `O=C(NO)c1cc2cc(N(Cc3ccccc3)Cc3ccccc3)ccc2s1` [Compound 21] stands 949 ± 834 nM.
With `O=C(NCCCc1ccccc1)c1ccc2sc(C(=O)NO)cc2c1` [Compound 112], the IC50 stood at 74.5 ± 7.7 nM.
On the same count and under the same terms, the figure for `O=C(NO)c1cc2ccc(C(=O)N3CCCCC3)cc2s1` [Compound 136] is 424 ± 72.7 nM; for `COC(=O)c1ccc2sc(C(=O)NO)cc2c1` [Compound 45] it is 737 ± 143 nM; for `O=C(NO)c1cc2ccc(NC(=O)C3(c4ccc(Cl)cc4)CC3)cc2s1` [Compound 125] it is 164 ± 1.4 nM.
On to `O=C(NCCCCc1ccccc1)c1ccc2sc(C(=O)NO)cc2c1` [Compound 175], for which the IC50 is 154 ± 8.4 nM.
On to `O=C(Cc1ccccc1)Nc1ccc2sc(C(=O)NO)cc2c1` [Compound 15], for which the IC50 came out at 31 ± 7 nM.
Regarding `O=C(NO)c1cc2ccc(C(=O)N3CCC(Cc4ccccc4)CC3)cc2s1` [Compound 190], the IC50 was 170 ± 38.8 nM.
`O=C(NO)c1cc2cc([N+](=O)O)ccc2s1` [Compound 22]: the IC50 is 1740 ± 63.6 nM.
For the compound `O=C(NC1CCc2ccccc21)c1ccc2sc(C(=O)NO)cc2c1` (centres unmarked) [Compound 172], the IC50 was determined as 1360 ± 47.3 nM.
Same read-out and setting: the figure for `O=C(NCc1ccccn1)c1ccc2cc(C(=O)NO)sc2c1` [Compound 94] is 85.7 ± 23.5 nM.
Consider `O=C(NCc1ccccc1Cl)c1ccc2sc(C(=O)NO)cc2c1` [Compound 169], for which the IC50 came out at 66.5 ± 2.1 nM.
The same measure, in the same setting: the figure for `O=C(NC1CCc2ccccc21)c1ccc2cc(C(=O)NO)sc2c1` (centres unmarked) [Compound 138] is 922 ± 174 nM.
Consider `COc1ccccc1CNC(=O)c1ccc2sc(C(=O)NO)cc2c1` [Compound 166], for which the IC50 was found to be 90 ± 5.6 nM.
For the compound `COc1ccc(CNC(=O)c2ccc3sc(C(=O)NO)cc3c2)cc1` [Compound 168], the IC50 was determined as 36 ± 1.4 nM.
As for `O=C(Nc1nc(-c2ccccc2)cs1)c1ccc2cc(C(=O)NO)sc2c1` [Compound 183], the IC50 was determined as 4140 ± 1890 nM.
Still for that read-out and setting: the figure for `O=C(NO)c1cc2cc(N(Cc3ccccc3)Cc3ccccc3)ccc2s1` [Compound 20] is 1650 ± 1160 nM; for `O=C(NCCc1c[nH]c2ccccc12)c1ccc2sc(C(=O)NO)cc2c1` [Compound 173] it is 129 ± 18.3 nM; for `Nc1ccccc1NC(=O)c1cc2ccccc2s1` [Compound 103] it is 1820 ± 508 nM.
Same read-out and setting: under `O=C(NO)c1cc2cc(NS(=O)(=O)c3ccccc3)ccc2s1` [Compound 26] stands 166 ± 22.6 nM; under `O=C(CN1CCc2ccccc2C1)Nc1ccc2cc(C(=O)NO)sc2c1` [Compound 47], 24 nM; under `O=C(Cc1ccc(Cl)cc1)Nc1ccc2sc(C(=O)NO)cc2c1` [Compound 95], 79.5 ± 33.2 nM.
Same read-out and setting: the figure for `O=C(NO)c1cc2cc(C(F)(F)F)ccc2s1` [Compound 2] is 609 ± 24.7 nM.
With `COc1ccccc1CC(=O)Nc1ccc2cc(C(=O)NO)sc2c1` [Compound 52], the IC50 worked out at 20 nM.
The same measure, in the same setting: the figure for `Cc1ccc(S(=O)(=O)Nc2ccc3cc(C(=O)NO)sc3c2)cc1` [Compound 43] is 60.5 ± 2.1 nM.
Regarding `O=C(NO)c1cc2ccc(COCc3ccccc3)cc2s1` [Compound 184], the IC50 came to 199 ± 35.3 nM.
With `O=C(NO)c1cc2cc(NS(=O)(=O)c3ccc4ccccc4c3)ccc2s1` [Compound 17], the IC50 was found to be 52.5 ± 10.6 nM.
Still for that read-out and setting: under `O=C(NO)c1cc2ccc(NS(=O)(=O)c3ccccc3)cc2s1` [Compound 10] stands 46.5 ± 23.3 nM; under `O=C(NO)c1cc2ccc(C(=O)N3CCN(c4ccccc4)CC3)cc2s1` [Compound 139], 176 ± 13.4 nM.
For `O=C(CN1CCCN(C(=O)OCc2ccccc2)CC1)Nc1ccc2cc(C(=O)NO)sc2c1` [Compound 121], the IC50 was found to be 184 ± 58.2 nM.
Same read-out and setting: under `O=C(NO)c1cc2ccccc2s1` [Compound 1] stands 672 ± 98.9 nM; under `O=C(NO)c1cc2cc(CNc3cccc(OCc4ccccc4)c3)ccc2s1` [Compound 165], 269 ± 63.6 nM.
Regarding `O=C(NC(Cc1ccccc1)c1ccccc1)c1ccc2cc(C(=O)NO)sc2c1` (centres unmarked) [Compound 131], the IC50 was 223 ± 11.3 nM.
`CC(C)C(=O)Nc1ccc2cc(C(=O)NO)sc2c1` [Compound 9]: the IC50 was 156 ± 33.2 nM.

Staying with this experiment, now noted: Table 2, thiophene backbone; concentration for 50% inhibition of deacetylation; substrate at Km; unit inferred, text gives nm; read-out: HDAC Inhibition.
As to `O=C(NO)c1ccc(-c2cccc(CN(Cc3ccccc3)Cc3cnc4ccccc4c3)c2)s1` [Compound 70], the IC50 turned out to be 399 nM.
`O=C(NO)c1cc(-c2ccccc2)cs1` [Compound 199]: the IC50 was 9260 ± 1180 nM.
Same read-out and setting: under `O=C(CCc1ccc(C(=O)NO)s1)Nc1nc2ccccc2s1` [Compound 197] stands 134 ± 7.7 nM; under `O=C(CCc1ccc(C(=O)NO)s1)NCC(c1ccccc1)c1ccccc1` [Compound 83], 581 nM.
On to `O=C(NO)c1ccc(-c2cccc(CN(Cc3ccccc3)Cc3ccccc3)c2)s1` [Compound 61], for which the IC50 stood at 1000 nM.
The same measure, in the same setting: the figure for `O=C(NO)c1ccc(-c2cccc(CN3CCN(c4ccccc4)CC3)c2)s1` [Compound 69] is 174 nM; for `O=C(NO)c1ccc(-c2cccc(CN(CCCc3ccccc3)Cc3ccccc3)c2)s1` [Compound 76] it is 1010 nM.
The same measure, in the same setting: the figure for `O=C(CCc1ccc(C(=O)NO)s1)Nc1cccc(OCc2ccccc2)c1` [Compound 195] is 127 ± 11.3 nM; for `O=C(NO)c1ccc(-c2ccccc2)s1` [Compound 54] it is 219 nM; for `O=C(NO)c1ccc(-c2cccc(CN(CCCc3ccccc3)Cc3cnc4ccccc4c3)c2)s1` [Compound 74] it is 461 nM.
For the compound `O=C(/C=C/c1ccc(C(=O)NO)s1)NCc1ccccc1` [Compound 64], the IC50 came to 206 nM.
Regarding `O=C(NCc1ccccc1)c1ccc(-c2ccc(C(=O)NO)s2)cc1` [Compound 60], the IC50 amounted to 464 ± 65 nM.
Still for that read-out and setting: under `O=C(NO)c1ccc(-c2cccc(CN(CCc3ccccc3)Cc3cnc4ccccc4c3)c2)s1` [Compound 72] stands 570 nM.
On the same count and under the same terms, under `O=C(Nc1ccc(C(=O)NO)s1)c1ccccc1` [Compound 56] stands 714 ± 122 nM.
